According to PubChem BioAssay (NCI):
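Compound exposure: 48 hours, 5 concentrations, 96-well plates. GI50 is the concentration that inhibits growth by half. TGI: concentration producing complete growth inhibition.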

How the values were obtained:
Experiment in all cases: NCI tumour cell line growth inhibition, 48 h
786-0 renal = tested on: 786-0 renal
HL-60(TB) leukemia = tested on: HL-60(TB) leukemia
NCI-H460 lung = tested on: NCI-H460 lung
SNB-19 CNS = tested on: SNB-19 CNS
UACC-257 melanoma = tested on: UACC-257 melanoma
ACHN renal = tested on: ACHN renal
OVCAR-8 ovarian = tested on: OVCAR-8 ovarian
SR leukemia = tested on: SR leukemia
EKVX NSCLC = tested on: EKVX NSCLC
HCT-116 colon = tested on: HCT-116 colon

SMILES | GI50 (786-0 renal) [µM] | TGI (786-0 renal) [µM] | GI50 (HL-60(TB) leukemia) [nM] | TGI (HL-60(TB) leukemia) [µM] | GI50 (NCI-H460 lung) [nM] | TGI (NCI-H460 lung) [µM] | GI50 (SNB-19 CNS) [µM] | TGI (SNB-19 CNS) [µM] | GI50 (UACC-257 melanoma) [µM] | TGI (UACC-257 melanoma) [µM] | GI50 (ACHN renal) [µM] | TGI (ACHN renal) [µM] | GI50 (OVCAR-8 ovarian) [µM] | TGI (OVCAR-8 ovarian) [µM] | GI50 (SR leukemia) [nM] | TGI (SR leukemia) [µM] | GI50 (EKVX NSCLC) [µM] | TGI (EKVX NSCLC) [µM] | GI50 (HCT-116 colon) [nM] | TGI (HCT-116 colon) [µM]
CC([C@H]1CCC2C3CCC4C(=O)C(NC=O)=CC[C@]4(C)C3CC[C@@]21C)N(C)C (stereo partly drawn) | 2.48 | 7.76 | 1860 | 4.95 | 2150 | 5.49 | 8.39 | 22.1 | 4.24 | 10.4 | 4.86 | 17.2 | 6.16 | 40.9 | 1030 | 6.5 | 3.01 | 50.7 | 1420 | 3.95
COc1cc(Oc2cnc3cc(N)cc(N)c3n2)cc(OC)c1OC | 33 | > 100 | 21900 | 45 | 52000 | > 100 | > 100 | > 100 | > 100 | > 100 | 24.3 | 63.4 | 58.8 | > 100 | 14000 | 37.2 | 61.4 | > 100 | 19600 | 42.8
CC(C)n1c2c(c3ccccc3c1=O)C(=O)c1ccccc1-2 | – | > 100 | – | > 100 | – | – | – | > 100 | – | > 100 | – | – | – | > 100 | – | > 100 | – | > 100 | – | > 100
N#CC1(Cc2ccccc2Cl)c2ccccc2C=CN1C(=O)c1ccccc1 (stereo not drawn) | – | > 100 | – | > 100 | – | – | – | > 100 | – | > 100 | – | > 100 | – | > 100 | – | > 100 | – | > 100 | – | > 100
COc1cc(C2CC(c3ccc(C)cc3)=NN2C(C)=O)ccc1Oc1ccnc2cc(Cl)ccc12 (stereo not drawn) | 1.17 | 10.4 | > 100000 | > 100 | – | – | 37.4 | > 100 | > 100 | > 100 | 2.76 | > 100 | – | – | > 100000 | > 100 | > 100 | > 100 | 681 | > 100
CC(CC(C)[C@H]1CCC2[C@H]3C(CC[C@@]21C)[C@@]1(C)CCC(O)C[C@H]1C[C@@H]3O)C(=O)O (stereo partly drawn) | – | > 100 | – | > 100 | – | > 100 | – | > 100 | – | > 100 | – | > 100 | – | > 100 | – | > 100 | – | > 100 | – | > 100
COC(=O)c1nc(N)[nH]c(=O)c1-c1ccc(Cl)cc1 | – | > 100 | – | > 100 | – | > 100 | – | > 100 | – | > 100 | – | > 100 | – | > 100 | – | > 86.6 | – | > 100 | – | > 100
COc1cc(C2C3=C(COC3=O)N(CCO)c3cc4c(cc32)OCCO4)cc(OC)c1O (stereo not drawn) | 7.03 | > 50 | 1520 | > 13.5 | 1750 | > 28.5 | 2.11 | > 50 | > 10.2 | > 50 | 5.94 | > 50 | 2.76 | > 50 | 1860 | > 50 | 3.5 | > 50 | 2150 | > 50
